Assay results published in US6534489B1, “Organophosphorus compounds and the use thereof” (Jomaa Pharmaka GmbH, priority 1998, dated 2003).
pIC50: −log10 of the molar value. Read-outs that look alike come from different tables or passages of the source.

Legend:
Plasmodium falciparum = test: Antimalarial activity: in vitro Plasmodium falciparum culture, [3H]-hypoxanthine incorporation; assay type: cell-based; settings: Example 11, asynchronous blood culture, 48 h + 24 h with [3H]-hypoxanthine, dilution series 100 to 0.14 μmol l−1, IC50 determined by extrapolating, read-out: IC 50 values, Plasmodium falciparum
Protocol: The antimalarial activity of compounds 1 to 5 was determined using in vitro cultures of the causative organism of malaria, Plasmodium falciparum. 200 μl of an asynchronous Plasmodium falciparum culture with a 0.4% blood parasite content and a haematocrit of 2% were loaded into each of the wells of a 96 well microtitre plate. A serial dilution series of the compounds was then prepared in steps of three between concentrations of 100 and 0.14 μmol 1^−1. The plates are incubated at 37° C., 3% CO2 and 5% O2 over a period of 48 hours. 30 μl of medium supplemented with 27 ηCi ml^−1 of [^3H]-hypoxanthine were then added to each well. After 24 hours' incubation, the parasites were harvested by filtration through glass fibre filters and the incorporated radioactivity was measured. Inhibition of parasite growth was measured as the percentage inhibition of tritium incorporation relative to a comparison without the substance. The median inhibitory concentration (IC50) of the substance was determined by extrapolating the values.

E. coli K12 = test: Antibacterial action: growth inhibition of E. coli K12 in LB medium (turbidity); assay type: cell-based; settings: Escherichia coli, Example 10, overnight at 37° C., dilution series 500, 100, 50, 10 and 0 μmol l−1, growth assessed by turbidity, read-out: IC 50 values, E. coli
Protocol: Antibacterial action of the above-stated compounds 1 to 5
A dilution series comprising the concentrations 500, 100, 50, 10 and 0 μmol 1^−1 of the individual compounds 1 to 5 in LB medium is introduced into 5 culture microtubes in a volume of 0.5 ml. Each of the microtubes was inoculated with 10 μl of an overnight culture of E. coli K12 and shaken overnight at 37° C. Bacterial growth was assessed on the basis of the turbidity of the medium.

Molecule	pIC50 (Plasmodium falciparum)	pIC50 (E. coli K12)	pIC50 (Plasmodium falciparum; Plasmodium falciparum)
3-acetyl-3-(N-hydroxylamino)-3-methyl-[2-(3-pyridyl)ethyl]propylphosphonic acid [Compound 5]	6.74		
CC(=O)N(O)C(CCc1ccccc1)CCP(=O)(O)O (stereo not shown) [Compound 1, 3-N-Acetyl-3-N-(hydroxylamino)-5-phenylpentylphosphonic acid]	6.67		
CC(=O)N(O)C(CCC1CCCCC1)CCP(=O)(O)O (stereo not shown) [Compound 2, 3-N-Acetyl-3-N-(hydroxylamino)-5-cyclohexyl-pentylphosphonic acid]	6.80		
CC(=O)C(C)(NO)C(CCc1ccccc1)CP(=O)(O)O (stereo not shown) [Compound 3, 3-acetyl-3-(N-hydroxylamino)-3-methyl-2-(2-phenylethyl)propylphosphonic acid]		3.12	6.39
CC(=O)C(C)(NO)C(CCc1ccccn1)CP(=O)(O)O (stereo not shown) [Compound 4, 3-acetyl-3-(N-hydroxylamino)-3-methyl-2-[2-(2-pyridyl)ethyl]propylphosphonic acid]		3.13	6.43
